Results reported in patent US9422297B2, “Tricyclic compounds having cytostatic and/or cytotoxic activity and methods of use thereof” (Duquesne University of the Holy Ghost, priority 2007, dated 2016).

Tests used:
Format in all cases: cell-based
U251 = assay: NCI In-Vitro Testing, CNS Cancer
MALME-3M = assay: NCI In-Vitro Testing, Melanoma
SK-MEL-2 = assay: NCI In-Vitro Testing, Melanoma
SK-MEL-5 = assay: NCI In-Vitro Testing, Melanoma
OVCAR-4 = assay: NCI In-Vitro Testing, Ovarian Cancer
SK-OV-3 = assay: NCI In-Vitro Testing, Ovarian Cancer
CAKI-1 = assay: NCI In-Vitro Testing, Renal Cancer
RXF 399 = assay: NCI In-Vitro Testing, Renal Cancer
MDA-MB-435 = assay: NCI In-Vitro Testing, Breast Cancer

Nc1nc2c(c(Nc3ccc(Cl)cc3)n1)-c1ccccc1C2 [AAG145-136]
GI50 (U251): 1.84E−7 Molar | LC50 (U251): >1.00E−4 Molar | TGI (U251): 5.66E−5 Molar | Percent Growth (U251; Log10 Concentration −4.0 Molar): −6% | Percent Growth (U251; Log10 Concentration −5.0 Molar): 19% | Percent Growth (U251; Log10 Concentration −6.0 Molar): 29% | Percent Growth (U251; Log10 Concentration −7.0 Molar): 53% | Percent Growth (U251; Log10 Concentration −8.0 Molar): 98% | GI50 (MALME-3M): >1.00E−4 Molar | LC50 (MALME-3M): >1.00E−4 Molar | TGI (MALME-3M): >1.00E−4 Molar | Percent Growth (MALME-3M; Log10 Concentration −4.0 Molar): 78% | Percent Growth (MALME-3M; Log10 Concentration −5.0 Molar): 64% | Percent Growth (MALME-3M; Log10 Concentration −6.0 Molar): 106% | Percent Growth (MALME-3M; Log10 Concentration −7.0 Molar): 97% | Percent Growth (MALME-3M; Log10 Concentration −8.0 Molar): 96% | GI50 (SK-MEL-2): 5.58E−7 Molar | LC50 (SK-MEL-2): >1.00E−4 Molar | TGI (SK-MEL-2): >1.00E−4 Molar | Percent Growth (SK-MEL-2; Log10 Concentration −4.0 Molar): 16% | Percent Growth (SK-MEL-2; Log10 Concentration −5.0 Molar): 27% | Percent Growth (SK-MEL-2; Log10 Concentration −6.0 Molar): 35% | Percent Growth (SK-MEL-2; Log10 Concentration −7.0 Molar): 95% | Percent Growth (SK-MEL-2; Log10 Concentration −8.0 Molar): 98% | GI50 (SK-MEL-5): 5.13E−7 Molar | LC50 (SK-MEL-5): >1.00E−4 Molar | TGI (SK-MEL-5): 1.59E−5 Molar | Percent Growth (SK-MEL-5; Log10 Concentration −4.0 Molar): −45% | Percent Growth (SK-MEL-5; Log10 Concentration −5.0 Molar): 11% | Percent Growth (SK-MEL-5; Log10 Concentration −6.0 Molar): 35% | Percent Growth (SK-MEL-5; Log10 Concentration −7.0 Molar): 87% | Percent Growth (SK-MEL-5; Log10 Concentration −8.0 Molar): 95% | GI50 (OVCAR-4): 4.16E−6 Molar | LC50 (OVCAR-4): >1.00E−4 Molar | TGI (OVCAR-4): >1.00E−4 Molar | Percent Growth (OVCAR-4; Log10 Concentration −4.0 Molar): 19% | Percent Growth (OVCAR-4; Log10 Concentration −5.0 Molar): 30% | Percent Growth (OVCAR-4; Log10 Concentration −6.0 Molar): 82% | Percent Growth (OVCAR-4; Log10 Concentration −7.0 Molar): 84% | Percent Growth (OVCAR-4; Log10 Concentration −8.0 Molar): 83% | GI50 (SK-OV-3): 2.09E−6 Molar | LC50 (SK-OV-3): >1.00E−4 Molar | TGI (SK-OV-3): >1.00E−4 Molar | Percent Growth (SK-OV-3; Log10 Concentration −4.0 Molar): 16% | Percent Growth (SK-OV-3; Log10 Concentration −5.0 Molar): 36% | Percent Growth (SK-OV-3; Log10 Concentration −6.0 Molar): 57% | Percent Growth (SK-OV-3; Log10 Concentration −7.0 Molar): 97% | Percent Growth (SK-OV-3; Log10 Concentration −8.0 Molar): 106% | GI50 (CAKI-1): 1.08E−6 Molar | LC50 (CAKI-1): >1.00E−4 Molar | TGI (CAKI-1): >1.00E−4 Molar | Percent Growth (CAKI-1; Log10 Concentration −4.0 Molar): 15% | Percent Growth (CAKI-1; Log10 Concentration −5.0 Molar): 25% | Percent Growth (CAKI-1; Log10 Concentration −6.0 Molar): 51% | Percent Growth (CAKI-1; Log10 Concentration −7.0 Molar): 97% | Percent Growth (CAKI-1; Log10 Concentration −8.0 Molar): 105% | GI50 (RXF 399): 1.20E−5 Molar | LC50 (RXF 399): >1.00E−4 Molar | TGI (RXF 399): 6.26E−5 Molar | Percent Growth (RXF 399; Log10 Concentration −4.0 Molar): −14% | Percent Growth (RXF 399; Log10 Concentration −5.0 Molar): 56% | Percent Growth (RXF 399; Log10 Concentration −6.0 Molar): 91% | Percent Growth (RXF 399; Log10 Concentration −7.0 Molar): 107% | Percent Growth (RXF 399; Log10 Concentration −8.0 Molar): 108% | GI50 (MDA-MB-435): 5.54E−7 Molar | LC50 (MDA-MB-435): >1.00E−4 Molar | TGI (MDA-MB-435): >1.00E−4 Molar | Percent Growth (MDA-MB-435; Log10 Concentration −4.0 Molar): 33% | Percent Growth (MDA-MB-435; Log10 Concentration −5.0 Molar): 20% | Percent Growth (MDA-MB-435; Log10 Concentration −6.0 Molar): 31% | Percent Growth (MDA-MB-435; Log10 Concentration −7.0 Molar): 104% | Percent Growth (MDA-MB-435; Log10 Concentration −8.0 Molar): 104%
